Experimental data as given in US20070049564A1 (Wyeth, priority 2005, published 2007).
Like-named read-outs stand apart in the source and are kept apart here.

Key:
S. epidermidis GC 4935 = assay: MIC, broth microdilution; conditions: Staphylococcus epidermidis
Procedure: (§1) Antimicrobial susceptibility testing. The in vitro activities of the antibiotics are determined by the broth microdilution method as recommended by the National Committee for Clinical Laboratory Standards (NCCLS) (1). Mueller-Hinton II broth (MHBII)(BBL Cockeysville, Md.) is the medium employed in the testing procedures. Microtiter plates containing serial dilutions of each antimicrobial agent are inoculated with each organism to yield the appropriate density (10^5 CFU/ml) in a 100 μl final volume. The plates are incubated for 18-22 hours at 35° C. in ambient air.
(§2) Representative compounds were first incubated in mouse serum for an hour prior to the in vitro testing against a panel of selected gram-positive and gram-negative bacteria strains. All compounds were also pre-incubated in water for an hour prior to testing as control. Representative compounds of Formula I were incubated in human serum prior to MIC determination.

c. albicans GC 3066 = assay: MIC, broth microdilution
E. faecalis GC 2267 = assay: MIC, broth microdilution; conditions: Enterococcus faecalis
S. pneumoniae+ GC 4465 = assay: MIC, broth microdilution; conditions: Streptococcus pneumoniae
S. pneumoniae* GC 4465 = assay: MIC, broth microdilution; conditions: Streptococcus pneumoniae
Procedure: as §1, §2

E. coli GC 2236 = assay: MIC, broth microdilution; conditions: Escherichia coli
Staph. aureus Smith = assay: In vivo activity (oral, iv; ED50) against Staph. aureus Smith in mice
Procedure: Representative examples of compounds of Formula I were tested for the oral efficacy using S. aureus Smith in mice.

Staph. = assay: Range of MIC for Staph. strains, including MRSA; conditions: Staphylococcus aureus
P. aeruginosa GC 2214 = assay: MIC, broth microdilution; conditions: Pseudomonas aeruginosa
E. faecium GC 2243 = assay: MIC, broth microdilution; conditions: Enterococcus faecium
E. coli GC 2232 = assay: MIC, broth microdilution; conditions: Escherichia coli
E. faecalis GC 2265 = assay: MIC, broth microdilution; conditions: Enterococcus faecalis
S. aureus GC 4536 = assay: MIC, broth microdilution; conditions: Staphylococcus aureus
E. coli GC 2231 = assay: MIC, broth microdilution; conditions: Escherichia coli
E. faecalis GC 4555 = assay: MIC, broth microdilution; conditions: Enterococcus faecalis
E. coli GC 2272 = assay: MIC, broth microdilution; conditions: Escherichia coli
E. coli = assay: Range of MIC for E. coli strains; conditions: Escherichia coli
E. faecalis GC 2242 = assay: MIC, broth microdilution; conditions: Enterococcus faecalis
S. aureus GC 1131 = assay: MIC, broth microdilution; conditions: Staphylococcus aureus
S. aureus GC 2216 = assay: MIC, broth microdilution; conditions: Staphylococcus aureus
[1] = read-out: MINIMAL INHIBITORY CONCENTRATION MIC, pre-incubated in Human Serum
[2] = read-out: MINIMAL INHIBITORY CONCENTRATION MIC, pre-incubated in Mouse Serum
[3] = read-out: MINIMAL INHIBITORY CONCENTRATION MIC, pre-incubated in Water

CCC(C)(C)C(=O)OCOC(=O)N(CC(=O)Nc1cc(N(C)C)c2c(c1O)C(=O)C1=C(O)[C@]3(O)C(=O)C(C(N)=O)=C(O)[C@@H](N(C)C)[C@@H]3C[C@@H]1C2)C(C)(C)C [Example 44, ({[(2-{[(5aR,6aS,7S,10aS)-9-(aminocarbonyl)-4,7-bis(dimethylamino)-1,8,10a,11-tetrahydroxy-10,12-dioxo-5,5a,6,6a,7,10,10a,12-octahydrotetracen-2-yl]amino}-2-oxoethyl)(tert-butyl)amino]carbonyl}oxy)methyl 2,2-dimethylbutanoate]
> 64 µg/mL: MIC (c. albicans GC 3066; Candida albicans, GC3066, read-out: MINIMAL INHIBITORY CONCENTRATION MIC) | MIC (E. coli GC 2236; GC2236, read-out: MINIMAL INHIBITORY CONCENTRATION MIC, pre-incubated in Human Serum) | MIC (E. coli GC 2236; GC2236, read-out: MINIMAL INHIBITORY CONCENTRATION MIC, pre-incubated in Water) | MIC (P. aeruginosa GC 2214; GC2214, read-out: MINIMAL INHIBITORY CONCENTRATION MIC, pre-incubated in Human Serum) | MIC (P. aeruginosa GC 2214; GC2214, read-out: MINIMAL INHIBITORY CONCENTRATION MIC, pre-incubated in Mouse Serum) | MIC (P. aeruginosa GC 2214; GC2214, read-out: MINIMAL INHIBITORY CONCENTRATION MIC, pre-incubated in Water) | MIC (E. coli GC 2232; GC2232, read-out: MINIMAL INHIBITORY CONCENTRATION MIC, pre-incubated in Human Serum) | MIC (E. coli GC 2232; GC2232, read-out: MINIMAL INHIBITORY CONCENTRATION MIC, pre-incubated in Water) | MIC (E. coli GC 2231; GC2231, read-out: MINIMAL INHIBITORY CONCENTRATION MIC, pre-incubated in Human Serum) | MIC (E. coli GC 2231; GC2231, read-out: MINIMAL INHIBITORY CONCENTRATION MIC, pre-incubated in Water) | MIC (E. coli GC 2272; GC2272, read-out: MINIMAL INHIBITORY CONCENTRATION MIC, pre-incubated in Human Serum) | MIC (E. coli GC 2272; GC2272, read-out: MINIMAL INHIBITORY CONCENTRATION MIC, pre-incubated in Water) | MIC (E. coli; read-out: Minimum inhibitory concentration (MIC), E. coli (Human Serum)) | MIC (E. coli; read-out: Minimum inhibitory concentration (MIC), E. coli (water)) | MIC (E. coli; read-out: Range of MIC, E. coli (Water))
2 to 8 µg/mL: MIC (E. coli; 20 h, read-out: Range of MIC, E. coli (Mouse Serum))
4 µg/mL: MIC (S. epidermidis GC 4935; GC4935, read-out: MINIMAL INHIBITORY CONCENTRATION MIC, pre-incubated in Human Serum) | MIC (S. epidermidis GC 4935; GC4935, read-out: MINIMAL INHIBITORY CONCENTRATION MIC, pre-incubated in Water) | MIC (E. faecalis GC 2267; GC2267, read-out: MINIMAL INHIBITORY CONCENTRATION MIC, pre-incubated in Human Serum) | MIC (E. faecalis GC 2267; GC2267, read-out: MINIMAL INHIBITORY CONCENTRATION MIC, pre-incubated in Water) | MIC (S. pneumoniae+ GC 4465; [1]) | MIC (S. pneumoniae+ GC 4465; [2]) | MIC (S. pneumoniae+ GC 4465; [3]) | MIC (E. faecium GC 2243; GC2243, read-out: MINIMAL INHIBITORY CONCENTRATION MIC, pre-incubated in Human Serum) | MIC (E. faecium GC 2243; GC2243, read-out: MINIMAL INHIBITORY CONCENTRATION MIC, pre-incubated in Water) | MIC (E. faecalis GC 2265; GC2265, read-out: MINIMAL INHIBITORY CONCENTRATION MIC, pre-incubated in Water) | MIC (S. aureus GC 4536; GC4536, read-out: MINIMAL INHIBITORY CONCENTRATION MIC, pre-incubated in Water) | MIC (E. faecalis GC 4555; GC4555, read-out: MINIMAL INHIBITORY CONCENTRATION MIC, pre-incubated in Human Serum) | MIC (E. faecalis GC 4555; GC4555, read-out: MINIMAL INHIBITORY CONCENTRATION MIC, pre-incubated in Water) | MIC (E. faecalis GC 2242; GC2242, read-out: MINIMAL INHIBITORY CONCENTRATION MIC, pre-incubated in Human Serum) | MIC (E. faecalis GC 2242; GC2242, read-out: MINIMAL INHIBITORY CONCENTRATION MIC, pre-incubated in Water) | MIC (S. aureus GC 1131; GC1131, read-out: MINIMAL INHIBITORY CONCENTRATION MIC, pre-incubated in Water)
1 µg/mL: MIC (S. pneumoniae* GC 4465; [2])
0.75 mg/kg: ED50 (Staph. aureus Smith; Staphylococcus aureus, in Mus musculus, iv, read-out: ED50 SIV (Staph aureus Smith)) | ED50 (Staph. aureus Smith; iv, read-out: ED50 Staph Smith SIV)
2 to 4 µg/mL: MIC (Staph.; MRSA, read-out: Range of MIC, Staph (Water)) | MIC (Staph.; read-out: Minimum inhibitory concentration (MIC), Staph (Human Serum)) | MIC (Staph.; read-out: Minimum inhibitory concentration (MIC), Staph (Water))
4 mg/kg: ED50 (Staph. aureus Smith; Staphylococcus aureus, in Mus musculus, po, read-out: ED50 SOD (Staph aureus Smith)) | ED50 (Staph. aureus Smith; Staphylococcus aureus, in Mus musculus, po, read-out: ED50 Staph Smith SOD)
2 µg/mL: MIC (S. epidermidis GC 4935; GC4935, read-out: MINIMAL INHIBITORY CONCENTRATION MIC, pre-incubated in Mouse Serum) | MIC (E. faecalis GC 2267; GC2267, read-out: MINIMAL INHIBITORY CONCENTRATION MIC, pre-incubated in Mouse Serum) | MIC (S. pneumoniae* GC 4465; [1]) | MIC (S. pneumoniae* GC 4465; [3]) | MIC (E. coli GC 2236; GC2236, read-out: MINIMAL INHIBITORY CONCENTRATION MIC, pre-incubated in Mouse Serum) | MIC (Staph.; MRSA, read-out: Range of MIC, Staph (Mouse Serum)) | MIC (E. faecium GC 2243; GC2243, read-out: MINIMAL INHIBITORY CONCENTRATION MIC, pre-incubated in Mouse Serum) | MIC (E. coli GC 2232; GC2232, read-out: MINIMAL INHIBITORY CONCENTRATION MIC, pre-incubated in Mouse Serum) | MIC (E. faecalis GC 2265; GC2265, read-out: MINIMAL INHIBITORY CONCENTRATION MIC, pre-incubated in Human Serum) | MIC (E. faecalis GC 2265; GC2265, read-out: MINIMAL INHIBITORY CONCENTRATION MIC, pre-incubated in Mouse Serum) | MIC (S. aureus GC 4536; GC4536, read-out: MINIMAL INHIBITORY CONCENTRATION MIC, pre-incubated in Human Serum) | MIC (S. aureus GC 4536; GC4536, read-out: MINIMAL INHIBITORY CONCENTRATION MIC, pre-incubated in Mouse Serum) | MIC (E. coli GC 2231; GC2231, read-out: MINIMAL INHIBITORY CONCENTRATION MIC, pre-incubated in Mouse Serum) | MIC (E. faecalis GC 4555; GC4555, read-out: MINIMAL INHIBITORY CONCENTRATION MIC, pre-incubated in Mouse Serum) | MIC (E. coli GC 2272; GC2272, read-out: MINIMAL INHIBITORY CONCENTRATION MIC, pre-incubated in Mouse Serum) | MIC (E. faecalis GC 2242; GC2242, read-out: MINIMAL INHIBITORY CONCENTRATION MIC, pre-incubated in Mouse Serum) | MIC (S. aureus GC 1131; GC1131, read-out: MINIMAL INHIBITORY CONCENTRATION MIC, pre-incubated in Human Serum) | MIC (S. aureus GC 1131; GC1131, read-out: MINIMAL INHIBITORY CONCENTRATION MIC, pre-incubated in Mouse Serum) | MIC (S. aureus GC 2216; GC2216, read-out: MINIMAL INHIBITORY CONCENTRATION MIC, pre-incubated in Human Serum) | MIC (S. aureus GC 2216; GC2216, read-out: MINIMAL INHIBITORY CONCENTRATION MIC, pre-incubated in Mouse Serum) | MIC (S. aureus GC 2216; GC2216, read-out: MINIMAL INHIBITORY CONCENTRATION MIC, pre-incubated in Water)
>64 UG/ML: MINIMAL INHIBITORY CONCENTRATION MIC (c. albicans GC 3066; pre-incubated in Human Serum) | MINIMAL INHIBITORY CONCENTRATION MIC (c. albicans GC 3066; pre-incubated in Mouse Serum)
